Values quoted from earlier work, collected in publication PMC9851200, “Multiparameter phenotypic screening for endogenous TFEB and TFE3 translocation identifies novel chemical series modulating lysosome function” (Autophagy, 2022).

Assays:
Design in all cases: method as in original PKIS2 published data
[1] = target: T1, kinases (KINOMEscan panel) (Homo sapiens, UniProt O43318); conditions: Published KINOMEscan; ref original PKIS2 published data; cited from earlier work
T1 sequence (O43318 1-606): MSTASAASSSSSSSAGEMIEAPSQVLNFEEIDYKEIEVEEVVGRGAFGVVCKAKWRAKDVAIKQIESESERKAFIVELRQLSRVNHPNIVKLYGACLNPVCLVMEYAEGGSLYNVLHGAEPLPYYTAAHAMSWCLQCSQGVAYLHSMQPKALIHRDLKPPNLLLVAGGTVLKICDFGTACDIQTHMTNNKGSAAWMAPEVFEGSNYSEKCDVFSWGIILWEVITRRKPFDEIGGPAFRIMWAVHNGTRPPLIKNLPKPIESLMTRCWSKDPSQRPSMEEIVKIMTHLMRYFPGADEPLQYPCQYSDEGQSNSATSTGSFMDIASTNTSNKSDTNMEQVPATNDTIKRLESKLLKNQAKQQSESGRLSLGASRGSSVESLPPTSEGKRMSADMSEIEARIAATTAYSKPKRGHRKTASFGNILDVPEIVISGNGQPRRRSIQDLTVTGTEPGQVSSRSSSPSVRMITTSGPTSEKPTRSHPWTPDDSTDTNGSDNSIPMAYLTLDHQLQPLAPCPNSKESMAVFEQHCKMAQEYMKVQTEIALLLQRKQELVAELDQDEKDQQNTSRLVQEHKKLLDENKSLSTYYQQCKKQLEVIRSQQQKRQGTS

[2] = target: kinases (KINOMEscan panel) (Homo sapiens, UniProt P09619); conditions: Published KINOMEscan; ref original PKIS2 published data; cited from earlier work
[3] = target: T2, kinases (KINOMEscan panel) (Homo sapiens, UniProt P57078); conditions: RIPK4; Published KINOMEscan; ref original PKIS2 published data; cited from earlier work
T2 sequence (P57078 1-832): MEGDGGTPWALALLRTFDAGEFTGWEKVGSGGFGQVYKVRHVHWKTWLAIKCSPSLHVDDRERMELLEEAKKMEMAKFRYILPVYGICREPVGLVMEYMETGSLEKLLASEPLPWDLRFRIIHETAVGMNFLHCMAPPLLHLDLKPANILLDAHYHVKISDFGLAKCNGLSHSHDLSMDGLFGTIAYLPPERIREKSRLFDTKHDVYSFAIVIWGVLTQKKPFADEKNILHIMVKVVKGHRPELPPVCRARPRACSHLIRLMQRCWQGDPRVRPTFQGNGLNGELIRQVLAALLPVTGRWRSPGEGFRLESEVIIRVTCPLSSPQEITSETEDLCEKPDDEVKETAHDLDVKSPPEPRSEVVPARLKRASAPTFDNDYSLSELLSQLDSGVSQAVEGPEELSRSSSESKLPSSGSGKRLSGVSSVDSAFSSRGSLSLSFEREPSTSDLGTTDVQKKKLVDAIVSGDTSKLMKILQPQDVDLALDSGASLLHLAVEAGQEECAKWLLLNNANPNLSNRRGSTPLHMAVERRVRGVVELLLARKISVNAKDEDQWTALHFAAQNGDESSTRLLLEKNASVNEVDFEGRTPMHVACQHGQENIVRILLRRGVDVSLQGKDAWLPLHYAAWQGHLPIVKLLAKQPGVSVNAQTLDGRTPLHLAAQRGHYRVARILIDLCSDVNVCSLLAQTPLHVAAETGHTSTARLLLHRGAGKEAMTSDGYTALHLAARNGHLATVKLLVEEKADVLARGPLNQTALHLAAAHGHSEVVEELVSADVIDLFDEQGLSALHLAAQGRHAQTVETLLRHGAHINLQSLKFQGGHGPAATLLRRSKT

[4] = target: kinases (KINOMEscan panel) (Homo sapiens, UniProt Q08345); conditions: DDR1; Published KINOMEscan; ref original PKIS2 published data; cited from earlier work
[5] = target: T3, kinases (KINOMEscan panel) (Homo sapiens, UniProt Q56UN5); conditions: Published KINOMEscan; ref original PKIS2 published data; cited from earlier work
T3 sequence (Q56UN5 1-1328): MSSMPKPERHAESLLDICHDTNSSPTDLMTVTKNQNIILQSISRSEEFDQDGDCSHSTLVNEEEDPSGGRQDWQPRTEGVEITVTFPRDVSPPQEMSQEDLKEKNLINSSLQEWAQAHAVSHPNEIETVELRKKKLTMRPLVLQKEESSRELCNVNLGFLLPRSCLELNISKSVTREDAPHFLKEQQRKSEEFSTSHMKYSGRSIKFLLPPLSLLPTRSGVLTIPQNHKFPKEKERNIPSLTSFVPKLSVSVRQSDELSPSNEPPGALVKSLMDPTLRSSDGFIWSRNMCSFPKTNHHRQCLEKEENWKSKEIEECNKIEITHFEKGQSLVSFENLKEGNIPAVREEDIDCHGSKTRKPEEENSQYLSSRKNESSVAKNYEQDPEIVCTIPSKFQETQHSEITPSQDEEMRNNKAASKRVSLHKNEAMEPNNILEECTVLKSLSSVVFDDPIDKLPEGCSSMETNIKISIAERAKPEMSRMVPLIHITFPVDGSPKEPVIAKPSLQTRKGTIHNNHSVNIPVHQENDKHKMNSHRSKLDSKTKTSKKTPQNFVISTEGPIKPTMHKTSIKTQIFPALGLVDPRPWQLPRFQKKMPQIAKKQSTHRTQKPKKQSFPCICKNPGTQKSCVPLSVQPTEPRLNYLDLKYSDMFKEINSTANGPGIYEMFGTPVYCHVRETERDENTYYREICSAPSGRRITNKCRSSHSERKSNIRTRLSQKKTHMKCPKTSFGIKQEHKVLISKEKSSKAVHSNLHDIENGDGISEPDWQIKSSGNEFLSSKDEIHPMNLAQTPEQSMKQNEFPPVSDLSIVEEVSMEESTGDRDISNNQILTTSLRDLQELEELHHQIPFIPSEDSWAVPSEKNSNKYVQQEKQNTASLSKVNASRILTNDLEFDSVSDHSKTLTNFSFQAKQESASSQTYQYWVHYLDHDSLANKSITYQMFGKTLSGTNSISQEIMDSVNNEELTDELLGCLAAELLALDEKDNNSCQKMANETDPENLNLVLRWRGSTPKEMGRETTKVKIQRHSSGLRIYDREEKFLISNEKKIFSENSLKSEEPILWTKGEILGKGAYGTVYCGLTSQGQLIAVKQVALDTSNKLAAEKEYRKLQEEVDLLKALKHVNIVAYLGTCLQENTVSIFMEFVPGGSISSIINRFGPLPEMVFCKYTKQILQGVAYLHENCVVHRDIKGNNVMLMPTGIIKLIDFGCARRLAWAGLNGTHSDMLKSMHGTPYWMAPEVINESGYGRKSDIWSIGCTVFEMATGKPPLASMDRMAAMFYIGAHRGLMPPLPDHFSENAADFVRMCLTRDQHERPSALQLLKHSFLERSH

kinases (KINOMEscan panel) (Homo sapiens, UniProt Q08345), sequence (Q08345 19-913): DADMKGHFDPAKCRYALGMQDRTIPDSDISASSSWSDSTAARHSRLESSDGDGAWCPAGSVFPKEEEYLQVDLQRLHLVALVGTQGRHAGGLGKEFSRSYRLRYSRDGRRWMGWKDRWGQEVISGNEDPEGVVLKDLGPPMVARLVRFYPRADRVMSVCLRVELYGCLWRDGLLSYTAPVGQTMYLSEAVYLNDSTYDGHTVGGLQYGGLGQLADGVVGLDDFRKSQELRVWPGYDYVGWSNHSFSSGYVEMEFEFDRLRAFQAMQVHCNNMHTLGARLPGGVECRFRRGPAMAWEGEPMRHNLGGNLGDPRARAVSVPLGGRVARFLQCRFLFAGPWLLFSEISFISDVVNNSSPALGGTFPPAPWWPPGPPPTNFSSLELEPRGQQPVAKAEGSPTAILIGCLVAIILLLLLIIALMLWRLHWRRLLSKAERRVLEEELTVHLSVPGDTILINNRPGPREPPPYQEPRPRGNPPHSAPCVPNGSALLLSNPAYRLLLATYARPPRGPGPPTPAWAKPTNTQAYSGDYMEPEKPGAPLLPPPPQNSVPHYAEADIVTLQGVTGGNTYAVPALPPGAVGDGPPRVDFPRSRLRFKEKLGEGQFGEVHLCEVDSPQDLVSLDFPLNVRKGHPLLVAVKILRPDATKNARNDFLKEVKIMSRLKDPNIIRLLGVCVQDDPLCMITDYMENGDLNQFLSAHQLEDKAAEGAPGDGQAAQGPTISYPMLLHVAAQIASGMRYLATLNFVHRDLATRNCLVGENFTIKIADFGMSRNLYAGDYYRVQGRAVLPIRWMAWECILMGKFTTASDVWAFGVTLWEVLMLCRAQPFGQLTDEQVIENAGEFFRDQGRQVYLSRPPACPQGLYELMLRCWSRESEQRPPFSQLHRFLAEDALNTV
kinases (KINOMEscan panel) (Homo sapiens, UniProt P09619), sequence (P09619 33-1106): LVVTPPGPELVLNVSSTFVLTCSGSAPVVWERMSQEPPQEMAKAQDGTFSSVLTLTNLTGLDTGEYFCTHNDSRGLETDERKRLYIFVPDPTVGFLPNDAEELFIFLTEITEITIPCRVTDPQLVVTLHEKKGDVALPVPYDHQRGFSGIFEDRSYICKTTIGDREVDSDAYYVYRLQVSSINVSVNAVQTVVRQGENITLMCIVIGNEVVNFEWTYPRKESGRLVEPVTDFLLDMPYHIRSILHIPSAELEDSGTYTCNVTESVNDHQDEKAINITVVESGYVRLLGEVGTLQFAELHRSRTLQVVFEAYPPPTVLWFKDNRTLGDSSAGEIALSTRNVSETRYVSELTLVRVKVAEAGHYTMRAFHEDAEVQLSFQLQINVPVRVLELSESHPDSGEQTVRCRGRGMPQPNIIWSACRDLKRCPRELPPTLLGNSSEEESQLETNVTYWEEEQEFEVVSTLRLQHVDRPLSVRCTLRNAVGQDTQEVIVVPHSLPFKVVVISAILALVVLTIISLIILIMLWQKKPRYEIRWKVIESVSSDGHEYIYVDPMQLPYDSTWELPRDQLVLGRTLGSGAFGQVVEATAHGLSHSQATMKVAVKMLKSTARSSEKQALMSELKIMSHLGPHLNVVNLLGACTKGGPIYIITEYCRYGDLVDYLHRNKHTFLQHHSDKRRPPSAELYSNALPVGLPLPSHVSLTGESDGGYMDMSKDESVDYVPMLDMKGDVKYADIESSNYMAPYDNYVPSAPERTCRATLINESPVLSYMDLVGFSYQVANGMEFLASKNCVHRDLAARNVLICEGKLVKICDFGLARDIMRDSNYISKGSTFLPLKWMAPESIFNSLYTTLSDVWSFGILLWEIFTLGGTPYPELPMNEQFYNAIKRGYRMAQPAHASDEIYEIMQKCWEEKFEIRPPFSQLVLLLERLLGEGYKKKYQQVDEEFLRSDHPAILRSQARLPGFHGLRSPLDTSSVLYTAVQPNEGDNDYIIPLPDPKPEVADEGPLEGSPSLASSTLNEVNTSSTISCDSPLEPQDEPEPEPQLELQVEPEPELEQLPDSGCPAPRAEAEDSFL

Cc1cccc(-c2nc(Nc3ccncc3)c3ccccc3n2)n1 [NK215]
KINOMEscan MAP3K7 [1]: 0 | KINOMEscan PDGFRB [2]: 3 | KINOMEscan RIPK4 [3]: 0 | KINOMEscan DDR1 [4]: 30 | KINOMEscan MAP3K19 [5]: 0
